Laboratory results published in patent US6949574B2 (Bristol-Myers Squibb Company, priority 2002, dated 2005).
pIC50: −log10 of the molar value. Where two headings read alike, the source gives them in different places.

Key:
human FAAH = target: T1, human FAAH (Homo sapiens, UniProt O00519); test: FAAH activity in membrane homogenates of H4-FAAH cells, [3H]-anandamide hydrolysis; format: biochemical; conditions: H4-FAAH cell membranes, 10 μM anandamide, room temperature, one hour; read-out: IC50
T1 construct: expressed in transfected cells; host or cells: H4 cells (H4-FAAH, Geneticin-selected); crude membrane homogenates
T1 sequence (O00519 1-579): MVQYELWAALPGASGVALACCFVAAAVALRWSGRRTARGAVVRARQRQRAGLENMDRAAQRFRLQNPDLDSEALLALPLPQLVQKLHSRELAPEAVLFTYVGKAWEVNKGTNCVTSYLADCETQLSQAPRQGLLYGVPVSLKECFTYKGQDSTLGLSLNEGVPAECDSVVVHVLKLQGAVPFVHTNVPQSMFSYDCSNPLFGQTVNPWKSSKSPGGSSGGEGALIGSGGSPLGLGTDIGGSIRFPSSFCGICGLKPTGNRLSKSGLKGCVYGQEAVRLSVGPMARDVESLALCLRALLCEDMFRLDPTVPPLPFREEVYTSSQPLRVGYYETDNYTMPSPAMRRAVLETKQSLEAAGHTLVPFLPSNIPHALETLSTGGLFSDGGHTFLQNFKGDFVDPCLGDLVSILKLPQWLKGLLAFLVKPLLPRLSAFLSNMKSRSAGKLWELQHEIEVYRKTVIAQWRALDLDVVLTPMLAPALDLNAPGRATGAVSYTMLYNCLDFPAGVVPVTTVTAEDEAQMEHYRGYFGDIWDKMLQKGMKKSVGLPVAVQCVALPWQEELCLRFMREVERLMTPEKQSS
Procedure, shortened: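 Membranes (240 ng protein) from H4 cells expressing transfected human FAAH, incubated 1 h at room temperature in 125 mM Tris-Cl, pH 9.0, with 1.67 nM [3H]-anandamide plus 10 μM anandamide. Aqueous [3H]-ethanolamine counted after methanol/dichloroethane extraction; background set with 10 μM ATFMK. IC50 from four-parameter logistic fit.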

[1] = system: carrageenan-induced edema; test: Paw edema model (inflammation-induced edema), plethysmometry; format: in vivo, rat
Source text: PAW EDEMA MODEL (Inflammation-induced Edema) The effects of Example 5 on carrageenan-induced edema were examined in a quantitative manner (plethysmometry).

[2] = system: acute thermal pain behavior; format: in vivo, rat
Source text: FIG. 2 illustrates results from a rat Hargreaves test used for measuring acute thermal pain.
Data are mean+/−s.e.m. (n=8 per group). **p<0.01 Dunnett's Test, compared to vehicle control.

[3] = system: thermal hyperalgesia induced by paw carrageenan; test: Carrageenan-induced thermal hyperalgesia (chronic inflammatory pain); format: in vivo, rat
Source text: FIG. 1 illustrates results from a rat carrageen-induced thermal hypergesia model used for measuring chronic inflammatory pain.
The following in vivo pain models below utilized Example 5. […] Paw carrageenan injection (⋄, 0:45 hr, Carr) produced strong thermal hyperalgesia as evidenced by the short escape latencies seen in vehicle treated rats (⋄, 2:15 hr, Carr) as compared to the long baseline latencies (0:00 hr). […] Data are mean+/−s.e.m. (n=8 per group). *p<0.05, **p<0.01 Tukey's HSD, compared to vehicle.

CCCCOc1ccc(NC(=O)O/N=C/c2ccc(F)cc2)cc1 [Example 5, 4-Fluorobenzaldehyde, O-[[(4-butoxyphenyl)amino]carbonyl]oxime]
pIC50 (human FAAH): > 8.00
inhibition of swelling (combined total paw volume) ([1]; 20 mg/kg ip): no efficacy
inhibition of swelling (combined total paw volume) ([1]; 40 mg/kg ip at -30 min and +2 hr relative to carrageenan, measured 3 hours post-injection): 26%
side effects ([2]; 10 mg/kg i.v.): No significant side effects were observed
side effects ([2]; 30 mg/kg i.v.): strong sedation, reduced activity and splayed hindlimbs
acute thermal pain behavior ([2]; 10 & 30 mg/kg, i.v. hand infusion, 15 min post injection, did not persist beyond this time): significant reversal of acute thermal pain behavior
side effects ([3]; 40 mg/kg, i.p.): No side effects were observed
thermal escape latencies of drug treated animals ([3]; 40 mg/kg, i.p., at 2:15 hr): comparable to baseline
development of thermal hyperalgesia ([3]; 40 mg/kg, i.p., pretreatment before paw carrageenan): suppressed the development of thermal hyperalgesia
thermal escape responses after second injection ([3]; second injection 40 mg/kg i.p. at 3:00 hr, 3:00-4:00 hr): maintained thermal escape responses at basal levels for another hour

O=C(Nc1ccccc1Oc1ccccc1)O/N=C/c1ccc(F)cc1 [Example 89, 4-Fluorobenzaldehyde, O-[[(2-phenoxyphenyl)amino]carbonyl]oxime]
pIC50 (human FAAH): < 6.30
melting point: 141.5 to 142 °C

O=C(Nc1ccccc1Oc1ccccc1)O/N=C/c1ccccc1 [Example 90, Benzaldehyde, O-[[(2-phenoxyphenyl)amino]carbonyl]oxime]
pIC50 (human FAAH): 7.00 to 8.00
melting point: 141.5 to 142 °C

CCCCOc1ccc(C(CC)NC(=O)Oc2ccc3ncccc3c2)cc1 (stereo not shown) [Example 125, [1-(4-Butoxy-phenyl)-propyl]-carbamic acid quinolin-6-yl ester]
pIC50 (human FAAH): 7.00 to 8.00
melting point: 115 to 118 °C

CCCCOc1ccc(C(CC)NC(=O)Oc2ccc(OC)cc2)cc1 (stereo not shown) [Example 126, [1-(4-Butoxy-phenyl)-propyl]-carbamic acid 4-methoxy-phenyl ester]
pIC50 (human FAAH): 7.00 to 8.00

CCCCOc1ccc(C(CC)NC(=O)Oc2cccc3ccccc23)cc1 (stereo not shown) [Example 127, [1-(4-Butoxy-phenyl)-propyl]-carbamic acid naphthalen-1-yl ester]
pIC50 (human FAAH): 6.30 to 7.00

CCCCOc1ccc(C(CC)NC(=O)Oc2ccc3ccccc3c2)cc1 (stereo not shown) [Example 128, [1-(4-Butoxy-phenyl)-propyl]-carbamic acid naphthalen-2-yl ester]
pIC50 (human FAAH): 7.00 to 8.00

CCCCOc1ccc(C(CC)NC(=O)Oc2ccc(C(C)C)cc2)cc1 (stereo not shown) [Example 129, [1-(4-Butoxy-phenyl)-propyl]-carbamic acid 4-isopropyl-phenyl ester]
pIC50 (human FAAH): 6.30 to 7.00

CCCCOc1ccc(C(CC)NC(=O)Oc2cccc(C(F)(F)F)c2)cc1 (stereo not shown) [Example 130, [1-(4-Butoxy-phenyl)-propyl]-carbamic acid 3-trifluoromethyl-phenyl ester]
pIC50 (human FAAH): 7.00 to 8.00

CCCCOc1ccc(C(CC)NC(=O)Oc2ccc(F)cc2F)cc1 (stereo not shown) [Example 131, [1-(4-Butoxy-phenyl)-propyl]-carbamic acid 2,4-difluoro-phenyl ester]
pIC50 (human FAAH): 7.00 to 8.00

CCCCOc1ccc(C(CC)NC(=O)Oc2ccc(F)cc2)cc1 (stereo not shown) [Example 132, [1-(4-Butoxy-phenyl)-propyl]-carbamic acid 4-fluoro-phenyl ester]
pIC50 (human FAAH): 7.00 to 8.00

CCCCOc1ccc(C(CC)NC(=O)Oc2ccccc2)cc1 (stereo not shown) [Example 134, [1-(4-Butoxy-phenyl)-propyl]-carbamic acid phenyl ester]
pIC50 (human FAAH): 7.00 to 8.00

CCCCOc1ccc(C(CC)NC(=O)Oc2ccccc2F)cc1 (stereo not shown) [Example 135, [1-(4-Butoxy-phenyl)-propyl]-carbamic acid 2-fluoro-phenyl ester]
pIC50 (human FAAH): > 8.00

CCCCCCCCC(=O)Nc1ccc(NC(=O)O/N=C/c2ccccc2)cc1 [Example 136, Benzaldehyde, O-[[(4-Nonanoylamino-phenyl)amino]carbonyl]oxime]
pIC50 (human FAAH): 7.00 to 8.00

CCCCCCCCC(=O)Nc1ccc(NC(=O)O/N=C/c2ccc(F)cc2)cc1 [Example 137, 4-Fluorobenzaldehyde, O-[[(4-Nonanoylamino-phenyl)amino]carbonyl]oxime]
pIC50 (human FAAH): 7.00 to 8.00

CCCCCCCCC(=O)Nc1ccc(NC(=O)O/N=C/c2cccc(C(F)(F)F)c2)cc1 [Example 138, 3-Trifluoromethylbenzaldehyde, O-[[(4-Nonanoylamino-phenyl)amino]carbonyl]oxime]
pIC50 (human FAAH): 7.00 to 8.00

CCCCCCCCC(=O)Nc1ccc(NC(=O)O/N=C/c2ccc(F)cc2F)cc1 [Example 139, 2,4-Difluorobenzaldehyde, O-[[(4-Nonanoylamino-phenyl)amino]carbonyl]oxime]
pIC50 (human FAAH): > 8.00

CCCCCCCCC(=O)Nc1ccc(NC(=O)O/N=C/c2ccc(F)c(F)c2)cc1 [Example 140, 3,4-Difluorobenzaldehyde, O-[[(4-Nonanoylamino-phenyl)amino]carbonyl]oxime]
pIC50 (human FAAH): 7.00 to 8.00

O=C(Nc1ccc2[nH]ccc2c1)O/N=C/c1cccnc1 [Example 141, 3-Pyridinecarboxaldehyde, O-[[(1H-indol-5-yl)amino]carbonyl]oxime]
pIC50 (human FAAH): < 6.30

O=C(Nc1ccc2[nH]ccc2c1)O/N=C/c1ccc(F)cc1 [Example 142, 4-Fluorobenzaldehyde, O-[[(1H-indol-5-yl)amino]carbonyl]oxime]
pIC50 (human FAAH): < 6.30

O=C(Nc1ccc2[nH]ccc2c1)O/N=C/c1ccccc1 [Example 143, Benzaldehyde, O-[[(1H-indol-5-yl)amino]carbonyl]oxime]
pIC50 (human FAAH): < 6.30

O=C(Nc1c[nH]c2ccccc12)O/N=C/c1ccc(F)cc1 [Example 144, 4-Fluorobenzaldehyde, O-[[(1H-indol-3-yl)amino]carbonyl]oxime]
pIC50 (human FAAH): < 6.30

O=C(Nc1c[nH]c2ccccc12)O/N=C/c1ccccc1 [Example 145, Benzaldehyde, O-[[(1H-indol-3-yl)amino]carbonyl]oxime]
pIC50 (human FAAH): < 6.30

O=C(Nc1ccc(Oc2ccncc2)cc1)O/N=C/c1ccc(F)cc1 [Example 146, 4-Fluorobenzaldehyde, O-[[[4-[(4-pyridinyl)oxy]phenyl]amino]carbonyl]oxime]
pIC50 (human FAAH): 6.30 to 7.00

O=C(Nc1ccc(Oc2ccccn2)cc1)O/N=C/c1cccnc1 [Example 147, 3-Pyridinecarboxaldehyde, O-[[[4-[(2-pyridinyl)oxy]phenyl]amino]carbonyl]oxime]
pIC50 (human FAAH): 6.30 to 7.00

O=C(Nc1ccc(Oc2ccccn2)cc1)O/N=C/c1ccc(F)cc1 [Example 148, 4-Fluorobenzaldehyde, O-[[[4-[(2-pyridinyl)oxy]phenyl]amino]carbonyl]oxime]
pIC50 (human FAAH): 7.00 to 8.00

O=C(Nc1ccc(Oc2ccccn2)cc1)O/N=C/c1ccccc1 [Example 149, Benzaldehyde, O-[[[4-[(2-pyridinyl)oxy]phenyl]amino]carbonyl]oxime]
pIC50 (human FAAH): 7.00 to 8.00

O=C(Nc1ccc(Oc2cccnc2)cc1)O/N=C/c1ccc(F)cc1 [Example 150, 4-Fluorobenzaldehyde, O-[[[4-[(3-pyridinyl)oxy]phenyl]amino]carbonyl]oxime]
pIC50 (human FAAH): > 8.00

O=C(Nc1ccc(Oc2cccnc2)cc1)O/N=C/c1ccccc1 [Example 151, Benzaldehyde, O-[[[4-[(3-pyridinyl)oxy]phenyl]amino]carbonyl]oxime]
pIC50 (human FAAH): > 8.00

O=C(Nc1ccc2oc3ccccc3c2c1)O/N=C/c1cccnc1 [Example 152, 3-Pyridinecarboxaldehyde, O-[[(2-dibenzofuranyl)amino]carbonyl]oxime]
pIC50 (human FAAH): 6.30 to 7.00

O=C(Nc1ccc2oc3ccccc3c2c1)O/N=C/c1ccc(F)cc1 [Example 153, 4-Fluorobenzaldehyde, O-[[(2-dibenzofuranyl)amino]carbonyl]oxime]
pIC50 (human FAAH): 7.00 to 8.00

O=C(Nc1ccc2oc3ccccc3c2c1)O/N=C/c1ccccc1 [Example 154, Benzaldehyde, O-[[(2-dibenzofuranyl)amino]carbonyl]oxime]
pIC50 (human FAAH): 7.00 to 8.00

CCCCOc1ccc(NC(=O)O/N=C(/C)Cl)cc1 [Example 155, (1Z)-N-[[[(4-butoxyphenyl)amino]carbonyl]oxy]ethanimidoyl chloride]
pIC50 (human FAAH): > 8.00

C[C@@H]1C[C@H]2[C@@H]3CCC4=CC(=O)C=C[C@]4(C)[C@@]3(F)[C@@H](O)C[C@]2(C)[C@@]1(O)C(=O)CO [dexamethasone, reference compound]
inhibition of swelling (combined total paw volume) ([1]; 1 mg/kg ip): 70%
